# In article PMC6892255, “Identification of a potent small-molecule inhibitor of bacterial DNA repair that potentiates quinolone antibiotic activity in methicillin-resistant Staphylococcus aureus^” (Bioorganic & Medicinal Chemistry, 2019):
# “Also recorded” adds a separate entry of the source.
# Test system: AddAB (StrepII-AddA and His6-AddB)
# Experiment: Recombinant AddAB pulldown with compound-functionalized Sepharose
# Format: binding
# Conditions: E. coli lysate co-expressing StrepII-AddA and His6-AddB, Western blot
# Text: A SOS reporter system was generated by transformation of JE2 cells with a plasmid containing GFP under control of the recA promoter. Activation of the SOS response in these cells results in expression of GFP which can be monitored by fluorescence intensity. […] This decrease is indicative of inhibition of the SOS response during cell death, and consistent with the proposed inhibition of AddAB-mediated DNA repair pathways. Finally, to provide additional evidence that inhibition of the bacterial DNA repair pathway by IMP-1700 (10) occurred through inhibition of AddAB, a target pulldown was conducted. IMP-1700 (10) was coupled with N-Boc-ethylenediamine to afford amide 19, followed by removal of the Boc group in 4 M HCl/dioxane and purification using strong cation exchange resin. The resulting free amine 20 was coupled to N-hydroxysuccinimide (NHS)-activated Sepharose resin at 4 °C overnight (Figure 2C), and the remaining NHS sites quenched in Tris buffer. SoluBL21 competent E. coli were transformed with pET28b^+ containing StrepII-tagged AddA and hexahistidine-tagged AddB, and expression induced overnight at 16 °C. Cells were lysed via sonication and the total lysate incubated with IMP-1700 (10)-functionalized or control Sepharose beads which had been treated with DMSO then Tris-quenched. Beads were washed three times with lysis buffer and bound protein eluted with SDS-PAGE sample buffer, followed by PAGE separation. […]
# agar (LA) supplemented with kanamycin (50 μg/mL). Liquid cultures were grown at 37 °C with shaking at 180 r.p.m until an OD600 of 0.5 was reached, at which point cultures were cooled to 16 °C. Protein expression was induced by addition of isopropyl β-D-thiogalactoside (1 mM), followed by incubation for 20 h at 16 °C with shaking. Cells were collected by centrifugation (4,000 × g, 5 min) and stored at -20 °C.
# Cells were re-suspended in lysis buffer (50 mM Tris-HCl, 150 mM NaCl, pH 7.5) and lysed on ice by sonication (2 min, 5 s on-off cycle, 40% amplitude) using a Vibra-cell sonicator (Sonics). […]
smiles,measurement,setting,value
O=C(O)c1cn(C2CC2)c2cc(N3CCN(C(=S)Nc4ccc(C(F)(F)F)cc4)CC3)c(F)cc2c1=O [Compound 10],Pulldown of AddA and AddB by compound-functionalized Sepharose,,allows co-isolation of the complex
same,Pulldown of AddA and AddB by compound-functionalized Sepharose,listed as IMP-1700,both AddA and AddB subunits were pulled down; also recorded: successfully pulled down
